According to US8560243B2, “Methods for determining therapeutic index from gene expression profiles” (Microsoft Corporation, priority 1998, dated 2013):

Columns and labels:
[1] = tested on: yeast; assay: Growth of yeast under methotrexate titration; type: cell-based, S. cerevisiae; settings: 100 μM titration
[2] = tested on: yeast gene YOL031C; assay: Yeast gene expression response to methotrexate exposure, Hill function fit; type: cell-based, S. cerevisiae; settings: least squares fit
Text: FIG. 4 illustrates the fit of a Hill function to the response of gene YOL031C illustrated in FIG. 3.
[formula] The adjustable parameters are selected independently for each cellular constituent of the drug response and for each cellular constituent of the pathway response. Preferably, the adjustable parameters are selected so that for each cellular constituent of each pathway response the sum of the squares of the distances of H(pi,l) from Ri,l(Pi,l) is minimized, and so that for each cellular constituent of the drug response the sum of the squares of the distances of H(tl) from Dk(tl) is minimized. This preferable parameter adjustment method is known in the art as a least squares fit of H( ) to Ri,k( ) or to Dk( ). Other possible model functions are based on polynomial fitting, for example by various known classes of polynomials.
Model fitting with a Hill function is illustrated with respect to FIGS. 3 and 4. As discussed, FIG. 3 illustrates an example of a pathway perturbed by methotrexate and identified by measurement. This figure illustrates the mRNA expression levels of 30 genes of the yeast S. cerevisiae that, of the approximately 6000 genes in the genome of this yeast, had the largest expression changes in response to six different exposure levels of methotrexate. FIG. 4 illustrates a fit of the pathway response of one of these gene expression levels by a Hill function. In particular, the yeast gene YOL031C was fit by a Hill function with parameters n=2, a=−0.61, and log10 (u0)=1.26 selected by the previously described least squares method.

[3] = tested on: calcineurin pathway
Text: In this example, the expression of a number of genes are monitored as a wild type yeast culture is subjected to a graded levels of the drug FK506 (FIG. 8A). Similar experiments are repeated with a yeast culture whose CNA1 and CNA2 genes are deleted (FIG. 8B). CNA1 and CNA2 are two components of the calcineurin multi-protein complex. Because the drug FK506 acts upon the calcineurin protein to exert its activity on the calcineurin pathway. Deletion of CNA1 and CNA2 eliminates the primary target pathway for FK506. […]
Control cultures were treated with the same volume of just ethanol. Growth was monitored by OD600 and cells were harvested at OD600=1.4+/−0.1 by centrifugation for 2 min at ambient temperature in a Sorvall RC5C+ centrifuge in a SLA-1500 rotor. […]
Extent of hybridization was determined by scanning with a prototype multi-frame CCD camera slides produced by Applied Precision, Inc. Images were processed by informatics and imported into the Inpharna database and analyzed using the MatLab data analysis package.
The horizontal axis is concentrations of the FK506 in logarithmic scale and the vertical axis is the values of the logarithm of the expression ratio of the genes most affected by FK506 on the vertical axis. […] P-Value is the probability that the up or down regulation is due to measurement error, as determined from observed statistics of the errors in Log 10 (expression ratio).

[4] = tested on: off-target genes; assay: Transcriptional response to FK506 titration in yeast strain with CNA1 and CNA2 deleted; type: cell-based, S. cerevisiae
Text: The response of those genes to FK506 were considered as off-target activity. Each ORF (Open Reading Frame) may be corresponding to an off-target gene.

CN(Cc1cnc2nc(N)nc(N)c2n1)c1ccc(C(=O)N[C@@H](CCC(=O)O)C(=O)O)cc1 [methotrexate]
growth defect [1]: 50%
Hill function parameter a [2]: −0.61
Hill function parameter n [2]: 2
Hill function parameter log10 (u0) ([2]; exposure levels in μM): 1.26

C=CC[C@@H]1/C=C(\C)C[C@H](C)C[C@H](OC)[C@H]2O[C@@](O)(C(=O)C(=O)N3CCCC[C@H]3C(=O)O[C@H](/C(C)=C/[C@@H]3CC[C@@H](O)[C@H](OC)C3)[C@H](C)[C@@H](O)CC1=O)[C@H](C)C[C@@H]2OC [FK506]
concentration at which expression of most genes affected via the primary target (calcineurin pathway) reaches two fold induction or repression [3]: 0.2 µg/mL
concentration at which expression of most off-target genes reaches two fold induction or repression [3]: 12 µg/mL
Log10(Ratio) ([4]; ORF ARG1, deletion strain): 0.9516
Log10(Ratio) ([4]; ORF ARG4, deletion strain): 0.7774
Log10(Ratio) ([4]; ORF ARG5, 6, deletion strain): 0.9136
Log10(Ratio) ([4]; ORF ARO3, deletion strain): 0.6261
Log10(Ratio) ([4]; ORF CPA1, deletion strain): 0.5645
Log10(Ratio) ([4]; ORF CPA2, deletion strain): 0.645
Log10(Ratio) ([4]; ORF ECM13, deletion strain): 0.8176
Log10(Ratio) ([4]; ORF GRE2, deletion strain): 0.6836
Log10(Ratio) ([4]; ORF HIS3, deletion strain): 0.6152
Log10(Ratio) ([4]; ORF HIS4, deletion strain): 0.8178
Log10(Ratio) ([4]; ORF HIS5, deletion strain): 0.8266
Log10(Ratio) ([4]; ORF NCE3, deletion strain): 0.5112
Log10(Ratio) ([4]; ORF PDR5, deletion strain): 0.597
Log10(Ratio) ([4]; ORF RIB5, deletion strain): 0.7436
Log10(Ratio) ([4]; ORF SNO1, deletion strain): 0.7711
Log10(Ratio) ([4]; ORF SNQ2, deletion strain): 0.6624
Log10(Ratio) ([4]; ORF SNZ1, deletion strain): 0.9834
Log10(Ratio) ([4]; ORF YER175C, deletion strain): 1.0121
Log10(Ratio) ([4]; ORF YGL117W, deletion strain): 0.8608
Log10(Ratio) ([4]; ORF YHM1, deletion strain): 0.5235
Log10(Ratio) ([4]; ORF YMR085W, deletion strain): 0.7679
Log10(Ratio) ([4]; ORF YMR097C, deletion strain): 0.6945
Log10(Ratio) ([4]; ORF YOL150C, deletion strain): 0.7246
Log10(Ratio) ([4]; ORF YOR1, deletion strain): 0.5928
Log10(Ratio) ([4]; ORF YOR203W, deletion strain): 0.6378
Log10(Ratio) ([4]; ORF YPL088W, deletion strain): 0.4764
toxic concentration: off-target transcriptional responses of many genes reach two-fold induction or repression ([4]; by inspection of FIG. 8B, calcineurin-deleted strain): approximately 12 mg/ml
